“Also recorded” adds a separate entry of the source.
What was measured:
SiHa cells = test: MTT antiproliferative assay, SiHa; assay type: cell-based, human; conditions: for inhibition at 10 µM / inhibition at 30 µM: Homo sapiens, SiHa, 72 h, values <20% considered negligible, read-out: Growth inhibition (%) ± SEM, SiHa
Summary of the method: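 We measured growth inhibition using a standard MTT method: cultures in supplemented minimal essential medium received test agents (10 μM, 30 μM) for 72 h, MTT was then added for a further 4 h, and optical density of the formazan was recorded at 545 nm.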

[1] = test system: human cancer cell lines (HeLa, SiHa, A2780, MCF-7 and MDA-MB-231); test: MTT antiproliferative assay, whole cancer cell panel; assay type: cell-based; conditions: 10 and 30 μM
Method: The in vitro antiproliferative activities of the synthesised aminotriols 5–18 against a panel of different human cancer cell lines of gynecological origin, including cervical (SiHA and HeLa), breast (MCF7 and MDA-MB-231), ovary (A2780) cancers and NIH/3T3 healthy fibroblasts, were assayed by the MTT method. Cisplatin, a clinically applied anticancer agent was used as a reference compound, and the results are summarised in Figure 3 and Table S1 in the Supplementary Materials.
The growth-inhibitory effects of the presented terpenes were determined by a standard MTT [3-(4,5-dimethylthiazol2-yl)-2,5-diphenyltetrazolium bromide] assay against […] human cancer cell lines (cervical cancer HeLa and SiHa cell lines, breast cancer MCF-7 and MDA-MB-231 and ovarian cancer A2780). Murine embryonal fibroblast cells (NIH/3T3) were used to determine selectivity. All cell lines were purchased from the European Collection of Cell Cultures (Salisbury, UK). The cells were cultivated in Eagle’s minimal essential medium supplemented with 10% fetal bovine serum, 1% non-essential amino acids, and 1% Antibiotic-Antimycotic complex (penicillin, streptomycin, amphotericin B) at 37 °C in a humidified atmosphere containing 5% CO2. All media and supplements were purchased from Lonza Group Ltd. (Basel, Switzerland). Cancer cells were seeded into 96-well plates (5000 cells/well) after an overnight incubation, and the test compounds were added at two different concentrations (10 μM and 30 μM) and incubated for another 72 h under cell-culturing conditions. Finally, 20 μL of a 5 mg/mL MTT solution was added to each well, and the contents were incubated for a further 4 h. The medium was removed, and the precipitated formazan crystals were dissolved in DMSO by shaking at 37 °C for 60 min. The absorbance was measured at 545 nm by using a microplate reader (SPECTROStar Nano, BMG Labtech, Offenburg, Germany). Clinically utilised anticancer agent cisplatin (Ebewe GmbH, Unterach, Austria) was included as a reference molecule. Calculations were performed using the GraphPad Prism 9 software (GraphPad Software Inc., San Diego, CA, USA).

[2] = Intestinal-specific parallel artificial membrane permeability assay (PAMPA-GI); assay type: in vitro ADME; conditions: for Papp at 4 h, 500 µM: PAMPA, read-out: PAMPA-GI Pe; for Papp at 4 h, 500 µM / PAMPA-GI MR (membrane retention): gradient pH system (pH donor 6.5 → pH acceptor 7.4) after 4 h, at 37 °C, mean ± S.E.M, n = 3; for Intestinal-specific permeability (Pe), category in words: PAMPA-GI
Summary of the method: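 Kinetic solubility: filtrates quantified by HPLC-DAD-MS against 5–500 μM calibration, target concentration 500 μM. PAMPA-GI: pH 6.5 phosphate donor, pH 7.4 PBS/5% DMSO acceptor, phosphatidylcholine/cholesterol 2:1 in dodecane membrane, 4 h at 37 °C; Pe and membrane retention calculated from HPLC-DAD-MS concentrations.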

Papp at 4 h, 500 µM [2] [×10⁻⁶ cm/s] | PAMPA-GI MR (membrane retention) [2] [%] | Intestinal-specific permeability (Pe), category in words [2] | Structure (SMILES) | inhibition at 10 µM (SiHa cells) [%] | inhibition at 30 µM (SiHa cells) [%] | Antiproliferative activity on the cancer cell panel, in words [1] | Antiproliferative effect on SiHa, in words (SiHa cells; 10 and 30 μM)
0.64 ± 0.03 | 29.8 ± 0.3 | – | COC(=O)[C@]1(C)CCC[C@@]2(C)C3CC[C@]4(O)C[C@@]3(CCC21)[C@@H](O)[C@]4(O)CNCc1ccccc1 (stereo partly drawn) [Compound 5, (4R,6aR,7R,8R,9S,11bS)-Methyl 8-((Benzylamino)methyl)-7,8,9-trihydroxy-4,11b-dimethyltetradecahydro-6a,9-methanocyclohepta[a]naphthalene-4-carboxylate] | < 20 | < 20 | significant activity in higher concentrations only | –
0.4 ± 0.04 | 63.8 ± 4.9 | – | COC(=O)[C@]1(C)CCC[C@@]2(C)C3CC[C@]4(O)C[C@@]3(CCC21)[C@@H](O)[C@]4(O)CNCc1ccc(F)cc1 (stereo partly drawn) [Compound 9, (4R,6aR,7R,8R,9S,11bS)-Methyl 8-(((4-Fluorobenzyl)amino)methyl)-7,8,9-trihydroxy-4,11b-dimethyltetradecahydro-6a,9-methanocyclohepta[a]naphthalene-4-carboxylate] | 54.6 ± 3.42 | 95.17 ± 0.37 | – | modest inhibition
0.25 ± 0.09 | 44.6 ± 4.2 | poor permeability | CC[C@H](NC[C@@]1(O)[C@H](O)[C@@]23CCC4[C@@](C)(CCC[C@@]4(C)C(=O)OC)C2CC[C@]1(O)C3)c1ccccc1 (stereo partly drawn) [Compound 16, (4R,6aR,7R,8R,9S,11bS)-Methyl 7,8,9-Trihydroxy-4,11b-dimethyl-8-((((S)-1-phenylpropyl)amino)methyl)tetradecahydro-6a,9-methanocyclohepta[a]naphthalene-4-carboxylate] | < 20 | 96.73 ± 0.65 | – | –
0.14 ± 0.04 | 46.8 ± 3.3 | poor permeability | CC[C@@H](NC[C@@]1(O)[C@H](O)[C@@]23CCC4[C@@](C)(CCC[C@@]4(C)C(=O)OC)C2CC[C@]1(O)C3)c1ccccc1 (stereo partly drawn) [Compound 15, (4R,6aR,7R,8R,9S,11bS)-Methyl 7,8,9-Trihydroxy-4,11b-dimethyl-8-((((R)-1-phenylpropyl)amino)methyl)tetradecahydro-6a,9-methanocyclohepta[a]naphthalene-4-carboxylate] | 22.4 ± 1.42 | 95.67 ± 0.76 | – | –
0.23 ± 0.08 | 67.3 ± 8.6 | – | COC(=O)[C@]1(C)CCC[C@@]2(C)C3CC[C@]4(O)C[C@@]3(CCC21)[C@@H](O)[C@]4(O)CN(C)Cc1ccccc1 (stereo partly drawn) [Compound 6, (4R,6aR,7R,8R,9S,11bS)-Methyl 8-((Benzyl(methyl)amino)methyl)-7,8,9-trihydroxy-4,11b-dimethyltetradecahydro-6a,9-methanocyclohepta[a]naphthalene-4-carboxylate] | < 20 | < 20 | lower bioactivity; also recorded: significant activity in higher concentrations only | –

Source: publication PMC9861858, “Stereoselective Synthesis and Antiproliferative Activities of Tetrafunctional Diterpene Steviol Derivatives” (International Journal of Molecular Sciences, 2023)
